Publication PMC11579541, “In vitro, in vivo, and in silico approaches for evaluating the preclinical DMPK profiles of ammoxetine, a novel chiral serotonin and norepinephrine reuptake inhibitor” (Frontiers in Pharmacology, 2024)
Like-named read-outs stand apart in the source and are kept apart here.

Experiments:
[1] = PPB assay by ultrafiltration, rat plasma; format: in vitro ADME, rats
Description: The PPB of ammoxetine was determined using the ultrafiltration method. Triplicate samples of rat, dog, or human plasma were spiked with ammoxetine at three final concentrations (50, 150, and 450 ng/mL). The spiked plasma samples were then incubated in a 37°C air-bath shaker for 1 h until equilibrium was reached. After incubation, 400 μL of the plasma samples were transferred to pre-saturated ultrafiltration devices. These devices were subsequently centrifuged at 13,800×g and 20°C for 20 min to separate the unbound ammoxetine. 100 μL of the test samples were taken and mixed with 100 μL of the IS, L-phencynonate (50 ng/mL), and 300 μL of methanol. Following centrifugation at 13,800×g for 10 min, the supernatants were used to determine the total and free concentrations of ammoxetine in the plasma (C t , C f ) using an LC-MS-MS method. The PPB rate (%) of ammoxetine was calculated by dividing (C t −C f ) by C t .

[2] = PK study in rats; format: in vivo, SD rats; settings: rat, plasma; for CL/F: read-out: CLz/F (converted); for MRT last: read-out: MRT(0-t); for MRT inf: read-out: MRT(0-∞); for Vd/F: read-out: Vz/F; for half-life: read-out: t1/2z (converted)
Description: For the PK studies in rats and dogs, a total of 18 SD rats and 15 male beagle dogs were randomly divided into three groups, with six rats or five dogs per group, respectively. Prior to the experiments, all animals underwent a 12-h fasting period, while having free access to water. The animals were administered single oral doses of ammoxetine in three different dose levels: 8 mg/kg, 20 mg/kg, and 50 mg/kg for rats, and 2 mg/kg, 5 mg/kg, and 12.5 mg/kg for dogs, representing low, medium, and high doses. Serial blood samples were collected from the rats at 0, 2, 5, 15, and 30 min, as well as 1, 2, 4, 6, 8, 12, and 24 h post-dosing. For the dogs, blood samples were collected at 0, 5, 15, 30, and 45 min, as well as 1, 2, 4, 6, 8, 12, and 24 h post-dosing. Approximately 0.3 mL of blood was collected from the rats, while 2 mL of blood was collected from the dogs. The blood samples were collected into heparinized tubes. Following centrifugation, plasma samples were obtained and stored at −30°C until further analysis.
To determine the concentration of ammoxetine, 100 μL of L-phencynonate (IS, 50 ng/mL) and 300 μL of methanol were added to 100 μL of plasma samples from rats or dogs. After thorough vortexing, the mixture was centrifuged at 13,800×g for 10 min. The supernatants were then subjected to analysis using LC-MS-MS methods. PK parameters were calculated using DAS (Drug And Statistics for Windows) version 2.0, developed by the Shanghai University of Traditional Chinese Medicine, Shanghai, China. The F was determined by comparing the plasma area under the concentration-time curve (AUC) values after oral (p.o.) and intravenous (i.v.) administration of ammoxetine. F was calculated using the formula: F=AUCp.o./AUCi.v.×100% . Statistical analyses were performed using OriginPro 8.6 software. Paired sample or student’s t-test, as well as one-way ANOVA, were employed to compare the means of two or three groups, with a significance level set at p < 0.05.

[3] = Stability of ammoxetine in dog plasma (method validation); format: in vitro ADME
Description: LC-MS-MS methods were developed and validated to accurately quantify ammoxetine in rat and beagle dog plasma, as well as in rat tissues, urine, feces, and bile. The methods involved direct protein precipitation using methanol, providing a straightforward and rapid sample preparation process with high extraction recovery rates (absolute recoveries >85% in all matrices). […] The precision and accuracy of the plasma methods were evaluated through intra-day and inter-day analyses, yielding satisfactory results. Additionally, stability tests conducted in rat and beagle dog plasma met the analytical requirements for determination. Furthermore, the majority of the analytes met the necessary criteria for matrix effects when quantifying ammoxetine in biological samples. The developed methods are well-suited for determining ammoxetine concentrations in rat and beagle dog biological samples, enabling in vivo studies of this compound. They provide specific and highly sensitive quantification, facilitating investigations into the drug’s behavior in vivo. Detailed results regarding the establishment and validation of these analytical methods can be found in Supplementary Data Sheet 2.

[4] = biological target: CYP 2C9 (Homo sapiens, UniProt P11712); assay: Phenotyping with recombinant human CYP 2C9; format: in vitro ADME; design: purchased BD (Woburn, USA); settings: 5 μmol/L, 25 pmol/mL CYP, 1 h
Chain of CYP 2C9 (P11712 whole entry): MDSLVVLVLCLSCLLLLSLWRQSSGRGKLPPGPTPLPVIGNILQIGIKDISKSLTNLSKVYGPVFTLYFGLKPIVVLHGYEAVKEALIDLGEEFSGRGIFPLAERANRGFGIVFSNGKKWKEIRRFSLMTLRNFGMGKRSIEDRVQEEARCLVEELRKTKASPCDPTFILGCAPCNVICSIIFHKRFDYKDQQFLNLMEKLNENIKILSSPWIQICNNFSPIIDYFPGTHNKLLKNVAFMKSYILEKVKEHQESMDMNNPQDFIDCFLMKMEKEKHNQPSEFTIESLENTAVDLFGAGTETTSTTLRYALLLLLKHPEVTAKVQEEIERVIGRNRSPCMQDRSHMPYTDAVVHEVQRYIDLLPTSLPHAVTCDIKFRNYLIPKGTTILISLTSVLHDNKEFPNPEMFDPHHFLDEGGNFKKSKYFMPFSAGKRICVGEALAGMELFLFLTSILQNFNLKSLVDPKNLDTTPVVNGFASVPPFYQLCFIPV
Description: Ammoxetine (final concentration 5 μmol/L) was incubated with recombinant human CYP 3A4, CYP 1A2, CYP 2C9, CYP 2C19, and CYP 2D6 (final concentration 25 pmol/mL) in a 5 mmol/L K2HPO4 buffer at pH 7.4. The incubations were performed in quintuplicate. NADPH (final concentration 1 mmol/L) was added to initiate the incubation process. The mixture was then incubated at 37°C for 1 h. To stop the reaction, 200 μL of ice-cold acetonitrile/methanol (1:1, v/v) containing 500 ng/mL of L-phencynonate (IS) was added. The samples were vortexed for 2 min and centrifuged at 13,800×g and 4°C for 10 min. The supernatants obtained were analyzed using an LC-MS-MS method. To establish appropriate controls, zero-time controls and blank controls in the absence of NADPH were set up in parallel.

**Q.** Which fraction unbound at 1 h, 50 ng/mL ([1]; 50 ng/mL, read-out: Percentage of ammoxetine-protein binding rate (%) (converted)) does the source give for `CNCC[C@H](Oc1cccc2c1OCO2)c1cccs1` [ammoxetine] here?
**A.** 0.338

**Q.** And the fraction unbound at 1 h, 150 ng/mL ([1]; 150 ng/mL, read-out: Percentage of ammoxetine-protein binding rate (%) (converted))?
**A.** 0.447

**Q.** And the fraction unbound at 1 h, 450 ng/mL ([1]; 450 ng/mL, read-out: Percentage of ammoxetine-protein binding rate (%) (converted))?
**A.** 0.506

**Q.** What about the fraction unbound at 1 h ([1]; approximate range over 50-450 ng/mL, read-out: PPB rate) of the same compound?
**A.** 0.4 to 0.5

**Q.** What about the AUC(0-inf) ([2]; SD, 8 mg/kg single oral dose) of the same compound?
**A.** 1370 ng·h/mL

**Q.** What about the AUC(0-t) ([2]; SD, 8 mg/kg single oral dose) of the same compound?
**A.** 1370 ng·h/mL

**Q.** And the Cmax ([2]; SD, 8 mg/kg single oral dose)?
**A.** 287 ± 50.8 ng/mL

**Q.** What about the CL/F ([2]; SD, 8 mg/kg single oral dose) of the same compound?
**A.** 100 mL/min/kg

**Q.** What about the MRT last ([2]; SD, 8 mg/kg single oral dose) of the same compound?
**A.** 4.38 ± 0.47 h

**Q.** What about the MRT inf ([2]; SD, 8 mg/kg single oral dose) of the same compound?
**A.** 4.49 ± 0.44 h

**Q.** And the Tmax ([2]; SD, 8 mg/kg single oral dose, read-out: Tmax)?
**A.** 0.75 ± 0.27 h

**Q.** What about the Vd/F ([2]; SD, 8 mg/kg single oral dose) of the same compound?
**A.** 24.4 ± 4.48 L/kg

**Q.** What about the half-life ([2]; SD, 8 mg/kg single oral dose) of the same compound?
**A.** 2.87 ± 0.59 h

**Q.** What about the AUC(0-inf) ([2]; SD, 20 mg/kg single oral dose) of the same compound?
**A.** 3400 ng·h/mL

**Q.** And the AUC(0-t) ([2]; SD, 20 mg/kg single oral dose)?
**A.** 3200 ng·h/mL

**Q.** What about the Cmax ([2]; SD, 20 mg/kg single oral dose) of the same compound?
**A.** 400 ± 246 ng/mL

**Q.** What about the CL/F ([2]; SD, 20 mg/kg single oral dose) of the same compound?
**A.** 108 mL/min/kg

**Q.** And the MRT last ([2]; SD, 20 mg/kg single oral dose)?
**A.** 6.73 ± 1.25 h

**Q.** And the MRT inf ([2]; SD, 20 mg/kg single oral dose)?
**A.** 8.57 ± 3.58 h

**Q.** What about the Tmax ([2]; SD, 20 mg/kg single oral dose, read-out: Tmax) of the same compound?
**A.** 1.58 ± 1.39 h

**Q.** And the Vd/F ([2]; SD, 20 mg/kg single oral dose)?
**A.** 53.5 ± 29 L/kg

**Q.** What about the half-life ([2]; SD, 20 mg/kg single oral dose) of the same compound?
**A.** 5.61 ± 2.59 h

**Q.** What about the AUC(0-inf) ([2]; SD, 50 mg/kg single oral dose) of the same compound?
**A.** 12900 ng·h/mL

**Q.** And the AUC(0-t) ([2]; SD, 50 mg/kg single oral dose)?
**A.** 11000 ng·h/mL

**Q.** And the Cmax ([2]; SD, 50 mg/kg single oral dose)?
**A.** 987 ± 362 ng/mL

**Q.** And the CL/F ([2]; SD, 50 mg/kg single oral dose)?
**A.** 72.3 mL/min/kg

**Q.** What about the MRT last ([2]; SD, 50 mg/kg single oral dose) of the same compound?
**A.** 7.74 ± 0.52 h

**Q.** And the MRT inf ([2]; SD, 50 mg/kg single oral dose)?
**A.** 11.8 ± 7.34 h

**Q.** And the Tmax ([2]; SD, 50 mg/kg single oral dose, read-out: Tmax)?
**A.** 3.83 ± 2.7 h

**Q.** And the Vd/F ([2]; SD, 50 mg/kg single oral dose)?
**A.** 40.3 ± 16.4 L/kg

**Q.** And the half-life ([2]; SD, 50 mg/kg single oral dose)?
**A.** 7.51 ± 5.7 h

**Q.** And the Tmax ([2]; Sprague-Dawley (SD), oral 8, 20 and 50 mg/kg, read-out: Tmax values, range)?
**A.** 0.75 to 3.83 h

**Q.** What about the “Stability in dog plasma, Accuracy/%” value ([3]; 5 ng/mL, 0d (-30℃)) of the same compound?
**A.** 91.60±7.22%

**Q.** What about the “Stability in dog plasma, Accuracy/%” value ([3]; 5 ng/mL, 15d (-30℃)) of the same compound?
**A.** 97.58±13.78%

**Q.** What about the “Stability in dog plasma, Accuracy/%” value ([3]; 5 ng/mL, 25d (-30℃)) of the same compound?
**A.** 97.61±9.77%

**Q.** And the “Stability in dog plasma, Accuracy/%” value ([3]; 5 ng/mL, in auto-sampler for 24h)?
**A.** 96.64±4.72%

**Q.** What about the “Stability in dog plasma, Accuracy/%” value ([3]; 5 ng/mL, repeated freezing and thawing for 3 times) of the same compound?
**A.** 96.59±4.01%

**Q.** And the “Stability in dog plasma, Accuracy/%” value ([3]; 5 ng/mL, room temperature for 4h)?
**A.** 99.00±11.24%

**Q.** What about the “Stability in dog plasma, Accuracy/%” value ([3]; 100 ng/mL, 0d (-30℃)) of the same compound?
**A.** 100.10 ±1.62%

**Q.** What about the “Stability in dog plasma, Accuracy/%” value ([3]; 100 ng/mL, 15d (-30℃)) of the same compound?
**A.** 98.63±4.19%

**Q.** What about the “Stability in dog plasma, Accuracy/%” value ([3]; 100 ng/mL, 25d (-30℃)) of the same compound?
**A.** 101.68 ±6.57%

**Q.** And the “Stability in dog plasma, Accuracy/%” value ([3]; 100 ng/mL, in auto-sampler for 24h)?
**A.** 99.51±7.50%

**Q.** What about the “Stability in dog plasma, Accuracy/%” value ([3]; 100 ng/mL, repeated freezing and thawing for 3 times) of the same compound?
**A.** 98.25±6.55%

**Q.** What about the “Stability in dog plasma, Accuracy/%” value ([3]; 100 ng/mL, room temperature for 4h) of the same compound?
**A.** 101.87 ±8.27%

**Q.** And the “Stability in dog plasma, Accuracy/%” value ([3]; 1200 ng/mL, 0d (-30℃))?
**A.** 92.06±3.06%

**Q.** What about the “Stability in dog plasma, Accuracy/%” value ([3]; 1200 ng/mL, 15d (-30℃)) of the same compound?
**A.** 92.48±4.64%

**Q.** What about the “Stability in dog plasma, Accuracy/%” value ([3]; 1200 ng/mL, 25d (-30℃)) of the same compound?
**A.** 93.96±3.46%

**Q.** And the “Stability in dog plasma, Accuracy/%” value ([3]; 1200 ng/mL, in auto-sampler for 24h)?
**A.** 92.32±4.25%

**Q.** And the “Stability in dog plasma, Accuracy/%” value ([3]; 1200 ng/mL, repeated freezing and thawing for 3 times)?
**A.** 92.01±6.32%

**Q.** What about the “Stability in dog plasma, Accuracy/%” value ([3]; 1200 ng/mL, room temperature for 4 h) of the same compound?
**A.** 93.89±4.32%

**Q.** What about the Transformation ratio% [4] of the same compound?
**A.** 13.02±7.14%

**Q.** And the “residuary concentration of ammoxetine, Mean±SD” value [4]?
**A.** 5.96±0.49
